Target: Human DPP-IV (Homo sapiens, UniProt P27487)
Assay: DPP-IV Assay (protease inhibition, AP-AFC substrate)
Format: biochemical
Experimental: Solutions of test compounds in varying concentrations (≦10 mM final concentration) were prepared in Dimethyl Sulfoxide (DMSO) and then diluted into assay buffer comprising: 20 mM Tris, pH 7.4; 20 mM KCl; and 0.1 mg/mL BSA. Human DPP-IV (0.1 nM final concentration) was added to the dilutions and pre-incubated for 10 minutes at ambient temperature before the reaction was initiated with A-P-7-amido-4-trifluoromethylcoumarin (AP-AFC; 10 μM final concentration). The total volume of the reaction mixture was 10-100 μL depending on assay formats used (384 or 96 well plates). The reaction was followed kinetically (excitation λ=400 nm; emission λ=505 nm) for 5-10 minutes or an end-point was measured after 10 minutes. Inhibition constants (IC50) were calculated from the enzyme progress curves using standard mathematical models.

Human DPP-IV, sequence (P27487 whole entry): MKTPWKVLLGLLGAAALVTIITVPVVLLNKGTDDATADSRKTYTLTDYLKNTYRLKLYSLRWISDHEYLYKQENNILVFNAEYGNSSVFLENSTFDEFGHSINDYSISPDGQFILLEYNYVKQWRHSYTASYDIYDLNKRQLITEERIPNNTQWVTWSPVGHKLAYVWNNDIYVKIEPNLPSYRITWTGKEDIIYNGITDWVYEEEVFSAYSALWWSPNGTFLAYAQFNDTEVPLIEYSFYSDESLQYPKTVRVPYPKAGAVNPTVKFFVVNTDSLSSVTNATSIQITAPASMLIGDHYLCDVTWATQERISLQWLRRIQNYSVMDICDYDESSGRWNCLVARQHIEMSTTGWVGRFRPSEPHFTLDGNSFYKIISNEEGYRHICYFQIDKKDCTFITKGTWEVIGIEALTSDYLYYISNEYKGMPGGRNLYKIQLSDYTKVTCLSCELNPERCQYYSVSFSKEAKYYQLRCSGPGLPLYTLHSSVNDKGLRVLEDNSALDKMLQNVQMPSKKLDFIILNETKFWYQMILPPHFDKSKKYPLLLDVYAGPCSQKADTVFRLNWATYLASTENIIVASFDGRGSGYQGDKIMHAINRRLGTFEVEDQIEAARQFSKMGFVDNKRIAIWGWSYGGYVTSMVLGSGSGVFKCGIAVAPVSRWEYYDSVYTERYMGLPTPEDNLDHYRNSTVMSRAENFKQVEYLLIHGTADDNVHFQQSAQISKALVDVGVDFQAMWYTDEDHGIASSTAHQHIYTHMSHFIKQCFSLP

IC50 (DPP-IV inhibition, Human DPP-IV 0.1 nM, AP-AFC 10 μM): < 50 µM
selectivity in protease inhibition assays (tested in DPP-IV, FAPα, PREP and Tryptase assays): selective DPP-IV inhibitory activity
Compound: COc1ccccc1-c1ccc2[nH]c(=O)c(=O)[nH]c2c1CN [Example 1, 5-Aminomethyl-6-(2-methoxy-phenyl)-1,4-dihydro-quinoxaline-2,3-dione]

Reference: US7960384B2, “Dipeptidyl peptidase inhibitors” (Takeda Pharmaceutical Company Limited, priority 2006, dated 2011)
